Experiments:
Experiment in all cases: selective drug sensitivity score (sDSS, relative to normal bone marrow) (sDSS (score)); higher = more potent and effective on the cell line relative to normal bone marrow cells
Conditions in all cases: 72 h
MHH-CALL-4 = tested on: MHH-CALL-4
PEER = tested on: PEER
MOLT-16 = tested on: MOLT-16
NALL-1 = tested on: NALL-1
KOPN-8 = tested on: KOPN-8
MHH-CALL-2 = tested on: MHH-CALL-2
P12-ICHIKAWA = tested on: P12-ICHIKAWA
LC4-1 = tested on: LC4-1
ALL-SIL = tested on: ALL-SIL
ALL-PO = tested on: ALL-PO
RPMI-8402 = tested on: RPMI-8402
CCRF-CEM = tested on: CCRF-CEM
697 = tested on: 697
KARPAS-45 = tested on: KARPAS-45
MOLT-14 = tested on: MOLT-14
COG-LL-394h = tested on: COG-LL-394h
SEM cells = tested on: SEM cells
MN-60 = tested on: MN-60
MOLT-4 = tested on: MOLT-4
TMD5 = tested on: TMD5
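Further: ALL cell lines in 384-well plates, five doses spanning 10,000-fold, each plate scaled between vehicle and 100 µmol/L benzalkonium chloride controls, sDSS an adapted area-under-curve metric.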

Row | SMILES | selective drug sensitivity score (MHH-CALL-4) | selective drug sensitivity score (PEER) | selective drug sensitivity score (MOLT-16) | selective drug sensitivity score (NALL-1) | selective drug sensitivity score (KOPN-8) | selective drug sensitivity score (MHH-CALL-2) | selective drug sensitivity score (P12-ICHIKAWA) | selective drug sensitivity score (LC4-1) | selective drug sensitivity score (ALL-SIL) | selective drug sensitivity score (ALL-PO) | selective drug sensitivity score (RPMI-8402) | selective drug sensitivity score (CCRF-CEM) | selective drug sensitivity score 697 | selective drug sensitivity score (KARPAS-45) | selective drug sensitivity score (MOLT-14) | selective drug sensitivity score (COG-LL-394h) | selective drug sensitivity score (SEM cells) | selective drug sensitivity score (MN-60) | selective drug sensitivity score (MOLT-4) | selective drug sensitivity score (TMD5)
1 | CNS(=O)(=O)Nc1nccc(Cc2c(C)c3ccc(Oc4ncccn4)cc3oc2=O)c1F (top concentration 1000 nM) | 1.02 | 0.22 | 1.42 | 2.22 | 2.42 | 1.32 | -0.98 | -0.18 | 0.42 | -1.18 | 0.12 | -1.18 | 0.02 | -0.28 | -0.98 | 1.12 | 1.82 | -1.18 | -1.18 | -1.18
2 | C[C@H]1Oc2cc(cnc2N)-c2c(nn(C)c2C#N)CN(C)C(=O)c2ccc(F)cc21 (top concentration 1000 nM) | -0.72 | -0.72 | -0.32 | -0.72 | 11.3 | -0.72 | -0.72 | -0.72 | -0.32 | -0.72 | -0.72 | -0.72 | -0.72 | -0.72 | -0.72 | -0.72 | -0.72 | -0.72 | -0.72 | -0.62
3 | CCc1cncnc1N1CCN(Cc2nc3cc(C(F)(F)F)ccc3[nH]2)CC1 (top concentration 10000 nM) | 5.46 | 4.56 | 4.86 | 8.66 | 8.36 | 5.56 | 3.66 | 4.16 | 1.76 | 3.86 | 5.96 | 0.36 | 4.16 | 2.46 | 0.16 | 4.56 | 9.76 | 1.96 | 2.16 | -0.84
4 | CN(C)CC#Cc1ccc(OCCCc2sc(N3CCc4cccc(C(=O)Nc5nc6ccccc6s5)c4C3)nc2C(=O)O)c(F)c1 (top concentration 10000 nM) | 9.16 | 31.8 | 0.56 | 3.46 | 3.46 | 1.66 | 39.3 | 0.36 | 37.6 | 0.46 | 27.9 | 32.8 | -2.04 | 38.5 | 12.3 | 17 | -0.24 | -3.64 | 34.8 | -3.64
5 | O=C(NC[C@H](O)CN1CCc2ccccc2C1)c1cc(NC2COC2)ncn1 (top concentration 10000 nM) | -0.06 | -0.06 | 1.54 | -0.06 | -0.06 | 0.04 | 0.24 | -0.06 | -0.06 | -0.06 | -0.06 | -0.06 | 0.84 | 0.04 | -0.06 | -0.06 | -0.06 | -0.06 | 2.74 | -0.06
6 | O=C1Cc2cc(C(=O)NC3C[C@H]4CC[C@@H](C3)N4S(=O)(=O)CC3CCN(CCCC(F)(F)F)CC3)c(Cl)cc2N1 (stereo not given in full) (top concentration 10000 nM) | 0 | 0 | 0 | 0.6 | 0 | 0 | 0 | 0 | 0 | 0 | 0 | 0 | 0 | 0 | 0 | 0 | 0 | 0 | 0 | 2.6
7 | CC/C(=C(\c1ccc(O)cc1)c1ccc(OCCN(C)C)cc1)c1ccccc1 [4-hydroxytamoxifen] (top concentration 10000 nM) | 0.42 | 2.32 | 3.02 | -1.78 | 3.22 | 2.12 | 2.02 | 0.72 | 1.22 | 3.12 | 2.62 | 1.52 | 1.32 | 1.52 | 0.32 | 2.12 | 1.62 | -2.08 | 0.62 | -1.78
8 | COCC1(CO)C(=O)C2CCN1CC2 (stereo not given) [APR-246] (top concentration 10000 nM) | 0.64 | -1.16 | 1.04 | -1.16 | 0.54 | 6.84 | -1.16 | 0.74 | -1.16 | -1.16 | -1.16 | -0.86 | 0.24 | -1.16 | -1.16 | -1.16 | -1.16 | -1.16 | -1.16 | -1.16
9 | Cc1sc2c(c1C)C(c1ccc(Cl)cc1)=N[C@@H](CC(=O)Nc1ccc(OCCOCCOCCOCCNc3cccc4c3C(=O)N(C3CCC(=O)NC3=O)C4=O)cc1)c1nnc(C)n1-2 (stereo not given in full) [ARV-825] (top concentration 300 nM) | 7.54 | -0.46 | 1.44 | -12.1 | 4.14 | 4.94 | -7.46 | 3.64 | -6.46 | 2.34 | 1.04 | -2.66 | 3.14 | -8.06 | -0.86 | -0.96 | 2.24 | -1.56 | -10.4 | 0.14
10 | COc1cc(OC2CCN(C)CC2)ccc1Nc1ncc2c(n1)n(C1CCCC1)c(=O)n2C [AZ3146] (top concentration 10000 nM) | 0.64 | 2.54 | 0.44 | -2.16 | 4.54 | 1.94 | 0.64 | 3.14 | 2.14 | 3.44 | 1.94 | 0.94 | 1.04 | 0.94 | 2.04 | 1.04 | 2.04 | -0.16 | 1.84 | -4.06
11 | CN(C)CCCOc1ccc(-c2ccc3ncc4c(c3c2)n(C2CCOCC2)c(=O)n4C)cn1 [AZD0156] (top concentration 1000 nM) | 1.54 | -0.06 | 0.54 | 2.54 | 2.04 | 1.84 | 0.14 | 1.04 | 1.84 | 2.24 | 0.14 | 1.74 | 1.04 | 0.14 | 0.14 | -0.06 | 1.14 | -0.06 | -0.06 | -0.06
12 | N#Cc1ccc2[nH]c(O)c(-c3ccc(CN4CCOCC4)cn3)c2c1 [AZD-1080] (top concentration 10000 nM) | -0.02 | -0.02 | 0.38 | -0.02 | 4.28 | -0.02 | -0.02 | 3.28 | -0.02 | 2.18 | -0.02 | -0.02 | 4.38 | -0.02 | -0.02 | -0.02 | 4.58 | -0.02 | -0.02 | -0.02
13 | CN(C)C/C=C/C(=O)Nc1cc2c(Nc3ccc(F)c(Cl)c3)ncnc2cc1O[C@H]1CCOC1 [Afatinib] (top concentration 1000 nM) | -0.84 | 0.66 | -0.34 | -0.84 | -0.74 | 0.16 | -0.74 | -0.84 | -0.84 | -0.64 | -0.84 | 0.66 | -0.34 | 1.06 | -0.84 | -0.84 | 0.96 | -0.84 | -0.84 | 3.56
14 | O=C(Nc1ccc(OC(F)(F)Cl)cc1)c1cnc(N2CC[C@@H](O)C2)c(-c2cc[nH]n2)c1 [Asciminib] (top concentration 1000 nM) | 7.12 | 16.2 | 8.42 | 3.62 | 11.4 | -1.98 | -1.98 | -1.98 | 31.2 | -0.28 | -1.98 | -1.98 | -1.18 | -1.98 | -0.28 | 4.52 | 5.72 | -1.98 | 1.12 | 13.6
15 | CC[C@@H]1C(=O)N(C)c2cnc(Nc3ccc(C(=O)NC4CCN(C)CC4)cc3OC)nc2N1C1CCCC1 [BI-2536] (top concentration 1000 nM) | 6.94 | 20.8 | 9.04 | -8.46 | 17 | 16.2 | 20.9 | 20.1 | 21.5 | 15.9 | 22.4 | 20.1 | 17.4 | 21.3 | 19 | 9.44 | 20.7 | -0.16 | 19.6 | 10.4
16 | Cc1ccc(NC(=O)c2ccc(CN3CC[C@H](N(C)C)C3)c(C(F)(F)F)c2)cc1Nc1nccc(-c2cncnc2)n1 [Bafetinib] (top concentration 1000 nM) | 0 | 15.4 | 0 | 0 | 3.1 | 0 | 0 | 0.4 | 34 | 0 | 0 | 0 | 0 | 0 | 0.3 | 3 | 0 | 4 | 0 | 9.1
17 | CC[C@H](NC(=O)[C@H](C)NC)C(=O)N1C[C@@H](O)C[C@H]1Cc1c(-c2[nH]c3cc(F)ccc3c2C[C@@H]2C[C@H](O)CN2C(=O)[C@H](CC)NC(=O)[C@H](C)NC)[nH]c2cc(F)ccc12 [Birinapant] (top concentration 1000 nM) | 7.5 | -4.4 | -1.7 | 6.9 | -5.1 | 8.7 | -5.1 | -5.1 | 8.7 | -1.9 | -3.2 | 1.4 | -5.1 | -5.1 | -5.1 | 16.2 | -5.1 | 1.4 | -5.1 | -0.1
18 | COc1cc2nccc(Oc3ccc(NC(=O)C4(C(=O)Nc5ccc(F)cc5)CC4)cc3)c2cc1OC [Cabozantinib] (top concentration 1000 nM) | 3.78 | 2.08 | -3.62 | -3.62 | 24.9 | -3.62 | -3.62 | -3.02 | 4.48 | 10.4 | -1.62 | -3.62 | -1.42 | -2.42 | 1.28 | 0.18 | 17.6 | -3.62 | -0.92 | -3.62
